Data reported in the NIST ThermoML archive (doi:10.1021/je040008e).

Columns and labels:
[1] = 101.33 kPa, Liquid; for speed of sound: Linear variable-path acoustic interferometer
[2] = xn = mol fraction of the nth substance listed; settings: 308.15 K, 101.33 kPa, Liquid; for speed of sound: Linear variable-path acoustic interferometer

CCC(=O)c1ccccc1 [ethyl phenyl ketone]
[1]
Settings | mass density [kg/m3] | speed of sound [m/s]
298.15 K | 1009.2 | –
308.15 K | – | 1432.1

CC(=O)c1ccccc1 [acetophenone] + CNC(C)=O
[2], x1 = 1
Settings | excess molar volume [m3/mol] | speed of sound [m/s]
– | 0 | 1445

CNC(C)=O [N-methylacetamide] + CC(=O)c1ccc(C)cc1
[2], x2 = 0
Settings | excess molar volume [m3/mol] | speed of sound [m/s]
– | 0 | 1360

CC(=O)c1ccccc1 [acetophenone]
[1]
Settings | mass density [kg/m3] | speed of sound [m/s]
298.15 K | 1023.1 | –
308.15 K | – | 1445

CNC(C)=O [N-methylacetamide]
[1], 308.15 K
Settings | mass density [kg/m3] | speed of sound [m/s]
– | 949.7 | 1360

CC(=O)c1ccc(Cl)cc1 [4'-chloroacetophenone] + CNC(C)=O
[2]
Settings | excess molar volume [m3/mol] | speed of sound [m/s]
x1 = 0.0644 | -2.11e-07 | 1363
x1 = 0.1311 | -3.3e-07 | 1366
x1 = 0.2036 | -4.53e-07 | 1369.3
x1 = 0.2825 | -5.363e-07 | 1372.4
x1 = 0.3696 | -5.889e-07 | 1375.8
x1 = 0.4664 | -5.934e-07 | 1379.5
x1 = 0.5774 | -5.393e-07 | 1382.6
x1 = 0.7003 | -4.298e-07 | 1385.1
x1 = 0.8405 | -2.52e-07 | 1387.6
x1 = 1 | 0 | 1390

CNC(C)=O [N-methylacetamide] + CC(=O)c1ccccc1
[2]
Settings | excess molar volume [m3/mol] | speed of sound [m/s]
x2 = 0 | 0 | 1360
x2 = 0.0686 | -1.018e-07 | 1368.7
x2 = 0.138 | -1.732e-07 | 1376.6
x2 = 0.2189 | -2.437e-07 | 1386.8
x2 = 0.3143 | -2.579e-07 | 1398
x2 = 0.3938 | -2.476e-07 | 1406.1
x2 = 0.4912 | -2.365e-07 | 1415.3
x2 = 0.6042 | -1.695e-07 | 1424.2
x2 = 0.7223 | -1.212e-07 | 1431.4
x2 = 0.8517 | -5.09e-08 | 1438

CC(=O)c1ccc(C)cc1 [4'-methylacetophenone]
[1], 308.15 K
Settings | mass density [kg/m3] | speed of sound [m/s]
– | 996.3 | 1437.9

CNC(C)=O [N-methylacetamide] + CCC(=O)c1ccccc1
[2], x2 = 0
Settings | excess molar volume [m3/mol] | speed of sound [m/s]
– | 0 | 1360

CC(=O)c1ccc(C)cc1 [4'-methylacetophenone] + CNC(C)=O
[2]
Settings | excess molar volume [m3/mol] | speed of sound [m/s]
x1 = 0.0617 | -1.519e-07 | 1368.9
x1 = 0.1321 | -2.517e-07 | 1377.7
x1 = 0.2004 | -3.355e-07 | 1385.8
x1 = 0.2836 | -3.41e-07 | 1394.4
x1 = 0.3629 | -3.52e-07 | 1402.4
x1 = 0.4632 | -3.458e-07 | 1411.5
x1 = 0.5582 | -3.114e-07 | 1418.4
x1 = 0.689 | -2.508e-07 | 1426.9
x1 = 0.8305 | -1.92e-07 | 1434
x1 = 1 | 0 | 1437.9

CNC(C)=O [N-methylacetamide] + CC(=O)c1ccc(Cl)cc1
[2], x2 = 0
Settings | excess molar volume [m3/mol] | speed of sound [m/s]
– | 0 | 1360

CC(=O)c1ccc(Cl)cc1 [4'-chloroacetophenone]
[1]
Settings | mass density [kg/m3] | speed of sound [m/s]
298.15 K | 1188.9 | –
308.15 K | – | 1390

CCC(=O)c1ccccc1 [ethyl phenyl ketone] + CNC(C)=O
[2]
Settings | excess molar volume [m3/mol] | speed of sound [m/s]
x1 = 0.06 | -2.003e-07 | 1368.3
x1 = 0.1269 | -3.185e-07 | 1374.7
x1 = 0.1862 | -3.356e-07 | 1380.6
x1 = 0.2778 | -2.912e-07 | 1388.9
x1 = 0.3654 | -2.106e-07 | 1397.8
x1 = 0.4649 | -1.397e-07 | 1406.6
x1 = 0.5709 | -8.14e-08 | 1413.5
x1 = 0.6929 | -1.92e-08 | 1419.6
x1 = 0.8315 | 3.82e-08 | 1426.6
x1 = 1 | 0 | 1432.1
